Drawing on ChEMBL document CHEMBL3352627, “Brocazines A-F, Cytotoxic Bisthiodiketopiperazine Derivatives from Penicillium brocae MA-231, an Endophytic Fungus Derived from the Marine Mangrove Plant Avicennia marina” (J Nat Prod, 2014), this text covers IC50 for nine compounds.

Common to all, as to format: functional, cell-based
One experiment relates to SW1990. The experiment is described as follows: Cytotoxicity against human SW1990 cells assessed as reduction in cell viability.
For a further experiment, the system named is MCF7. The experiment is described as follows: Cytotoxicity against human MCF7 cells assessed as reduction in cell viability.
The next experiment relates to HeLa. The experiment in a line: Cytotoxicity against human HeLa cells assessed as reduction in cell viability.
The next experiment deals with HepG2. The experiment is described as follows: Cytotoxicity against human HepG2 cells assessed as reduction in cell viability.
In a further experiment the test system is SW480. The experiment in a line: Cytotoxicity against human SW480 cells assessed as reduction in cell viability.
The next experiment deals with U-251. The experiment is described as follows: Cytotoxicity against human U251 cells assessed as reduction in cell viability.
Experiment [1] can be described thus: Cytotoxicity against human SGC7901 cells assessed as reduction in cell viability. The settings on record: SGC-7901.
For the next experiment, the system named is DU-145. The experiment is described as follows: Cytotoxicity against human DU145 cells assessed as reduction in cell viability.
Another experiment concerns NCI-H460. The experiment in a line: cells. The note with it: Homo sapiens.

Description for NCI-H460: Cytotoxicity against human NCI-H460 cells assessed as reduction in cell viability

As usually defined, the IC50 is the concentration needed to halve the response being measured. With `Nc1ccn([C@@H]2O[C@H](CO)[C@@H](O)C2(F)F)c(=O)n1` [GEMCITABINE], the IC50 with SW1990 is 2.2 µM.
On to `O=C1C=C[C@H](O)[C@@H]2[C@@H]1C[C@@]13SS[C@]4(C[C@H]5C(=O)CC[C@H](O)[C@H]5N4C1=O)C(=O)N23`, for which the IC50 turned out to be 6.1 µM in the experiment with MCF7; 5.3 µM with HeLa; 5.5 µM with HepG2; 1.2 µM in the experiment with SW480; 3.5 µM in the experiment on U-251; 2.4 µM in experiment [1]. Further, the IC50 in the experiment with DU-145 worked out at 3.6 µM; with SW1990, 6.4 µM; with NCI-H460, 4 µM.
`CO[C@H]1CC(=O)[C@@H]2C[C@@]34SS[C@]5(C[C@H]6C(=O)C[C@H](O)[C@H](O)[C@H]6N5C3=O)C(=O)N4[C@@H]2[C@H]1O`: the IC50 (in the experiment on MCF7; in the experiment on HeLa; in the experiment with HepG2; in the experiment with SW480; with U-251; in [1]) was greater than 20 µM in each case. The half-maximal inhibitory concentration (IC50) in the experiment with DU-145, in the experiment on SW1990 and in the experiment on NCI-H460 was greater than 20 µM each time.
`O=C1N2[C@H]3[C@H](C[C@]24SS[C@]12C[C@H]1[C@@H]([C@@H](O)C=C[C@@H]1O)N2C4=O)[C@@H](O)C=C[C@@H]3O`: the concentration for half-maximal inhibition (IC50) in the experiment with MCF7 worked out at 9 µM; in the experiment on HeLa, 4.3 µM; with HepG2 it was 5.6 µM; in the experiment on U-251, 6.1 µM; in experiment [1], 3.3 µM; in the experiment with DU-145, 11.2 µM. In addition, the IC50 came to 2.1 µM in the experiment with SW1990 and 12.4 µM in the experiment on NCI-H460.
Regarding `O=C1C[C@H](O)[C@H](O)[C@@H]2[C@H]1C[C@@]13SS[C@]4(C[C@H]5[C@@H]([C@@H](O)C=C[C@@H]5O)N4C1=O)C(=O)N23`, the half-inhibitory concentration (IC50) (in the experiment with MCF7; in the experiment on HeLa; in the experiment with HepG2; with SW480; in the experiment with U-251; in experiment [1]) was greater than 20 µM each time. For the same compound, the half-inhibitory concentration (IC50) in the experiment on DU-145, in the experiment on SW1990 and in the experiment with NCI-H460 was greater than 20 µM in each case.
With `CO[C@H]1CC(=O)[C@@H]2C[C@@]34SS[C@]5(C[C@@H]6C(=O)C=C[C@H](O)[C@H]6N5C3=O)C(=O)N4[C@@H]2[C@H]1O`, the IC50 in the experiment on MCF7 worked out at 5.5 µM; in the experiment on HeLa, 6.8 µM; in the experiment with HepG2, 6.4 µM; in the experiment on SW480, 2 µM; in the experiment on U-251 it was 5.2 µM; in experiment [1], 2.6 µM. The IC50 in the experiment with DU-145 was determined as 4.2 µM; with SW1990, 6 µM; in the experiment with NCI-H460, 4.9 µM.
`O=C1C=C[C@H](O)[C@@H]2[C@@H]1C[C@@]13SS[C@]4(C[C@H]5[C@@H]([C@@H](O)C=C[C@@H]5O)N4C1=O)C(=O)N23`: the 50% inhibitory concentration (IC50) in the experiment with MCF7 worked out at 3 µM; with HeLa it was 6.9 µM; in the experiment with HepG2, 2.9 µM; in the experiment with U-251 it was 5.3 µM; in [1], 8 µM; in the experiment on DU-145, 1.7 µM. In addition, the IC50 is 5.9 µM with SW1990 and 0.89 µM in the experiment with NCI-H460.
As to `COc1cccc2c1C(=O)c1c(O)c3c(c(O)c1C2=O)C[C@@](O)(C(=O)CO)C[C@@H]3O[C@H]1C[C@H](N)[C@H](O)[C@H](C)O1` [DOXORUBICIN], the IC50 in [1] came out at 2.9 µM.
On to `CC(=O)O[C@H]1C(=O)[C@@]2(C)[C@H]([C@H](OC(=O)c3ccccc3)[C@]3(O)C[C@H](OC(=O)[C@H](O)[C@@H](NC(=O)c4ccccc4)c4ccccc4)C(C)=C1C3(C)C)[C@]1(OC(C)=O)CO[C@@H]1C[C@@H]2O` [PACLITAXEL], for which the half-inhibitory concentration (IC50) amounted to 1.8 µM in the experiment on MCF7, 5 µM in the experiment with HeLa and 1.5 µM in the experiment with DU-145.
